What was measured:
[1] = system: HORVW (winter barley); assay: Greenhouse post-emergence weed control, damage vs untreated (HORVW); type: in vivo, Hordeum vulgare; conditions: 20 DAT
[2] = system: ØBLV (average value of KCHSC, CHEAL, AMAPA, AMATA and ABUTH); assay: Greenhouse post-emergence weed control, average over broadleaf weeds (ØBLV); type: in vivo; conditions: 20 DAT
Protocol: A greenhouse study was conducted to evaluate the effect of the alkylether sulfates of formula (I) and other adjuvants on the weed control efficacy of glufosinate. Seedlings of grass plants (AVEFA, ECHCG, DIGSA and SETVI) and broadleaf weeds (KCHSC, CHEAL, AMAPA, AMATA and ABUTH) were grown to a height of 3 to 20 cm, depending on the plant habit in 10×10×10 cm pots filled with sandy planting soil (Limburgerhof soil). The weeds were treated with postemergence applications of glufosinate ammonium at the respective application rates given in the following tables, either alone or combined with various amounts of the respective adjuvants.
For this, the herbicide formulation and the respective adjuvant were introduced into tap water to obtain the spray liquor. […] The spray liquor was then applied to the plant a spray volume of 200 l/ha using a sprayer (XR Teejet 110015).
The test period extended over 21 days. During this time, the plants were tended, and their response to the treatments with active compound was evaluated.
The evaluation for the damage caused by the chemical compositions was carried out using a scale from 0 to 100%, compared to the untreated control plants. Here, 0 means no damage and 100 means complete destruction of the plants.
The plants used in the greenhouse experiments belonged to the following species:
The results are summarized in the following tables 1 to 15 that show the applied doses of the individual actives as gram of active ingredient per hectare (g ai/ha), the herbicidal activity of the individual actives and of their combinations in post-emergence application assessed 14 and 28 day after treatment (DAT), respectively.

[3] = 5 g ai/ha L-glufosinate (so in the source), no adjuvant
[4] = 37.5 g ai/ha L-glufosinate, adjuvant g ai/ha: none (CE1-B), 56 (IE2-A), 62.125 (IE2-B), 51.625 (CE2-F)
[5] = 150 g ai/ha L-glufosinate, adjuvant g ai/ha: none (CE1-B), 223 (IE2-A), 248.5 (IE2-B), 206.5 (CE2-F)
[6] = 300 g ai/ha L-glufosinate, adjuvant g ai/ha: none (CE1-B), 446 (IE2-A), 497 (IE2-B), 413 (CE2-F)

CP(=O)(O)CC[C@H](N)C(=O)O.N [CE1-B, ammonium (2S)-2-amino-4-(methylphosphinato)butyric acid]
% activity [1, 3]: 0% | % activity [1, 4]: 5% | % activity [1, 5]: 5% | % activity [1, 6]: 15% | % activity (ØBLV) [2, 3]: 34% | % activity (ØBLV) [2, 4]: 26% | % activity (ØBLV) [2, 5]: 46% | % activity (ØBLV) [2, 6]: 56%
